Assay results from US20250205200A1, “5-METHOXY-N,N-[…][…] THE TREATMENT OF […]” (GH RESEARCH IRELAND LIMITED, priority 2022, published 2025).

Test system: patients with postpartum depression (PPD)
Experiment: Clinical trial of inhaled 5-MeO-DMT (individualized dosing regimen) in postpartum depression; one patient, 6 mg then 12 mg
Settings: n=1; for MADRS Concentration Difficulties improvement / MADRS Concentration Difficulties score / MADRS Reduced appetite improvement / MADRS Reduced appetite score / MADRS Suicidal Thoughts improvement / MADRS Suicidal Thoughts score: baseline 0; for MADRS Inability to Feel improvement / MADRS Inability to Feel score / MADRS Lassitude improvement / MADRS Lassitude score: baseline 3; for MADRS Pessimistic Thoughts improvement / MADRS Pessimistic Thoughts score / MADRS Reported sadness improvement / MADRS Reported sadness score: baseline 4
Description: The single-arm, open-label clinical trial will involve 15 adult female patients with clinically diagnosed postpartum depression (PPD).
The second dose (12 mg) will only be administered if: • a. […] The 6 mg dose was safe and well-tolerated according to the investigator, • c. Any psychoactive effects (PsE) of the prior dose have subsided, and • d. Pre-dose vital parameters and forced expiratory volume in one second (FEV1) are in normal range, or if outside of the normal range, are not clinically significant according to the investigator. • 3. Similarly, a third dose (18 mg) will only be administered if: • a. […] The 12 mg dose was safe and well-tolerated according to the investigator, and • c. Any PsE of the prior dose have subsided, and • d. Pre-dose vital parameters and forced expiratory volume in one second (FEV1) are in normal range, or if outside of the normal range, are not clinically significant according to the investigator.
The patients will be assessed for a peak psychedelic experience (based on a patient-scored visual analogue scale, the PE scale), sedation, and other endpoints after dosing.
Follow-up visits are planned for Day 1, and Day 7 after the dosing day.
The following criteria must be met by all patients considered for clinical trial participation: • 1. Is female and in the age range between 18 and 45 years (inclusive) at screening. • 2. Has a body mass index (BMI) in the range of 18.5 and 35 kg/m^2 (inclusive) at screening. • 3. Meets the trial criteria for PPD as assessed by a trial psychiatrist or registered psychologist: • a. Diagnosis of Major Depressive Disorder without psychotic features, confirmed by the Mini-International Neuropsychiatric Interview (MINI), with peri-partum onset that began no earlier than gestation and no later than the first 4 weeks postpartum. • b. Has a Montgomery-Åsberg Depression Rating Scale (MADRS) total score of equal to or greater than 28 at screening and pre-dose on Day 0. • 6. […] Patients must have a negative pregnancy test at screening and on the pre-test day (Day −1). • 5. Is willing to delay start of other antidepressant or anxiety medication until after the end of the trial at Day 7 and agrees to keep any psychotherapy unchanged during the trial.
A potential patient who meets any of the following key exclusion criteria will be excluded from participation in this trial: • 1. Has, based on history, psychiatric assessment, and evaluation of the MINI, a current or prior diagnosis of bipolar disorder, a manic or hypomanic episode, a psychotic disorder, Major Depressive Disorder (MDD) or other mood disorder with psychotic features, obsessive compulsive disorder, post-traumatic stress disorder (PTSD), autism spectrum disorder, borderline personality disorder, schizophrenia, delusional disorder, paranoid personality disorder, schizoaffective disorder, clinically significant intellectual disability, or any other psychiatric comorbidity that renders the patient unsuitable for the trial according to the investigator's judgment. • 2. Has one or more first or second degree relatives with a current or previously diagnosed bipolar disorder, psychotic disorder or other mood disorder (including MDD) with psychotic features. • 3. Is in the judgement of a trial psychiatrist or registered psychologist, at significant risk for suicide based on history, psychiatric assessment, and evaluation of suicidal ideation and suicidal behaviour based on the Columbia-Suicide Severity Rating Scale (C-SSRS). • 4. Has taken anti-depressive medication within 14 days or 5 half-lives (whichever is longer) prior to dosing (exception: within the last 5 weeks in the case of fluoxetine). • 5.

SMILES: COc1ccc2[nH]cc(CCN(C)C)c2c1 [5-MeO-DMT]
- Adverse events (cramping left abdominal pain and headache, Day 0): mild, short-lasting and resolved spontaneously
- Criteria for MADRS response (at least 50% improvement) and MADRS remission (total score <=10): fulfilled standard criteria
- ECG (3 hours), safety laboratory analyses (7 days), CADSS (3 hours, 1 day, 7 days): unremarkable
- Tolerability of IDR (6 mg followed by 12 mg, inhalation): well tolerated
- Tolerability of the inhalation procedure: well tolerated with no inhalation-related adverse events
- MADRS Concentration Difficulties improvement (2 hr): 0
- MADRS Concentration Difficulties score (2 hr): 0
- MADRS Reduced appetite improvement (2 hr): 0
- MADRS Reduced appetite score (2 hr): 0
- MADRS Suicidal Thoughts improvement (2 hr): 0
- MADRS Suicidal Thoughts score (2 hr): 0
- MADRS Inability to Feel improvement (2 hr): 3
- MADRS Inability to Feel score (2 hr): 0
- MADRS Lassitude improvement (2 hr): 3
- MADRS Lassitude score (2 hr): 0
- MADRS Pessimistic Thoughts improvement (2 hr): 4
- MADRS Pessimistic Thoughts score (2 hr): 0
- MADRS Reported sadness improvement (2 hr): 4
- MADRS Reported sadness score (2 hr): 0
- MADRS Apparent sadness improvement (2 hr, baseline 5): 5
- MADRS Apparent sadness score (2 hr, baseline 5): 0
- MADRS Inner Tension improvement (2 hr, baseline 5): 5
- MADRS Inner Tension score (2 hr, baseline 5): 0
- MADRS Reduced Sleep improvement (2 hr, baseline 5): 0
- MADRS Reduced Sleep score (2 hr, baseline 5): 5
- MADRS Concentration Difficulties improvement (Day 1): 0
- MADRS Concentration Difficulties score (Day 1): 0
- MADRS Reduced appetite improvement (Day 1): 0
- MADRS Reduced appetite score (Day 1): 0
- MADRS Suicidal Thoughts improvement (Day 1): 0
- MADRS Suicidal Thoughts score (Day 1): 0
- BPRS Blunted affect improvement (Day 1, baseline 1): 0
- BPRS Blunted affect score (Day 1, baseline 1): 1
- BPRS Conceptual disorganization improvement (Day 1, baseline 1): 0
- BPRS Conceptual disorganization score (Day 1, baseline 1): 1
- BPRS Disorientation improvement (Day 1, baseline 1): 0
- BPRS Disorientation score (Day 1, baseline 1): 1
- BPRS Grandiosity improvement (Day 1, baseline 1): 0
- BPRS Grandiosity score (Day 1, baseline 1): 1
- BPRS Hallucinatory behaviour improvement (Day 1, baseline 1): 0
- BPRS Hallucinatory behaviour score (Day 1, baseline 1): 1
- BPRS Hostility improvement (Day 1, baseline 1): 0
- BPRS Hostility score (Day 1, baseline 1): 1
- BPRS Mannerisms and Posturing improvement (Day 1, baseline 1): 0
- BPRS Mannerisms and Posturing score (Day 1, baseline 1): 1
- BPRS Motor retardation improvement (Day 1, baseline 1): 0
- BPRS Motor retardation score (Day 1, baseline 1): 1
- BPRS Suspiciousness improvement (Day 1, baseline 1): 0
- BPRS Suspiciousness score (Day 1, baseline 1): 1
- BPRS Uncooperativeness improvement (Day 1, baseline 1): 0
- BPRS Uncooperativeness score (Day 1, baseline 1): 1
- BPRS Unusual Thought Content improvement (Day 1, baseline 1): 0
- BPRS Unusual Thought Content score (Day 1, baseline 1): 1
- BPRS Excitement improvement (Day 1, baseline 2): 1
- BPRS Excitement score (Day 1, baseline 2): 1
- MADRS Inability to Feel improvement (Day 1): 3
- MADRS Inability to Feel score (Day 1): 0
- MADRS Lassitude improvement (Day 1): 3
- MADRS Lassitude score (Day 1): 0
- MADRS Pessimistic Thoughts improvement (Day 1): 4
- MADRS Pessimistic Thoughts score (Day 1): 0
- MADRS Reported sadness improvement (Day 1): 4
- MADRS Reported sadness score (Day 1): 0
- BPRS Emotional withdrawal improvement (Day 1, baseline 5): 4
- BPRS Emotional withdrawal score (Day 1, baseline 5): 1
- MADRS Apparent sadness improvement (Day 1, baseline 5): 5
- MADRS Apparent sadness score (Day 1, baseline 5): 0
- MADRS Inner Tension improvement (Day 1, baseline 5): 5
- MADRS Inner Tension score (Day 1, baseline 5): 0
- MADRS Reduced Sleep improvement (Day 1, baseline 5): 5
- MADRS Reduced Sleep score (Day 1, baseline 5): 0
- BPRS Depressive Mood improvement (Day 1, baseline 6): 5
- BPRS Depressive Mood score (Day 1, baseline 6): 1
- BPRS Guilt feelings improvement (Day 1, baseline 6): 5
- BPRS Guilt feelings score (Day 1, baseline 6): 1
- BPRS Somatic Concern improvement (Day 1, baseline 6): 5
- BPRS Somatic Concern score (Day 1, baseline 6): 1
- BPRS Tension score (Day 1, baseline 6): 1
- BPRS Anxiety improvement (Day 1, baseline 7): 6
- BPRS Anxiety score (Day 1, baseline 7): 1
- BIMF item 2 (I feel rested) score (Day 7, Day 0 score 0): 2
- BIMF item 19 (getting better at taking care of my baby) score (Day 7, Day 0 score 0): 1
- BIMF item 18 (Anxiety or worry often interferes with my mothering ability) score (Day 7, Day 0 score 2): 5
- BIMF item 16 (I worry about how other people judge me (as a mother)) score (Day 7, Day 0 score 3): 5
- BIMF item 13 (taking good care of my physical needs) score (Day 7, Day 0 score 4): 5
- BIMF item 4 (My baby and I understand each other) score (Day 7, Day 0 score 5): 5
- BIMF item 5 (able to relax and enjoy time with my baby) score (Day 7, Day 0 score 5): 6
- BIMF item 9 (getting enough encouragement from other people) score (Day 7, Day 0 score 5): 6
- BIMF item 10 (I trust my own feelings (instincts) when taking care of my baby) score (Day 7, Day 0 score 5): 6
- BIMF item 11 (I take a little time each week to do something for myself) score (Day 7, Day 0 score 5): 6
- BIMF item 15 (My baby and I are getting into a routine) score (Day 7, Day 0 score 5): 6
- BIMF item 17 (able to take care of my baby and my other responsibilities) score (Day 7, Day 0 score 5): 5
- BIMF item 1 (I am a good mother) score (Day 7, Day 0 score 6): 6
- BIMF item 3 (comfortable with the way I've chosen to feed my baby) score (Day 7, Day 0 score 6): 6
- BIMF item 6 (people I can trust to care for my baby when I need a break) score (Day 7, Day 0 score 6): 6
- BIMF item 8 (getting enough adult interaction) score (Day 7, Day 0 score 6): 6
- BIMF item 12 (taking good care of my baby's physical needs) score (Day 7, Day 0 score 6): 6
- BIMF item 14 (good decisions about my baby's health and well being) score (Day 7, Day 0 score 6): 6
- BIMF item 20 (satisfied with the job I am doing as a new mother) score (Day 7, Day 0 score 6): 5
- MADRS Concentration Difficulties improvement (Day 7): 0
- MADRS Concentration Difficulties score (Day 7): 0
- MADRS Reduced appetite improvement (Day 7): 0
- MADRS Reduced appetite score (Day 7): 0
